From publication PMC7750480, “A hybrid approach reveals the allosteric regulation of GTP cyclohydrolase I” (Proceedings of the National Academy of Sciences of the …, 2020)
Substitutions are numbered along the chain they refer to. In names and notes the source's numbering stands.

What was measured:
[1] = target: T1, GCH1 H126A (Homo sapiens, UniProt P30793, H126A); experiment: differential scanning fluorimetry (DSF), H126A; type: binding
T1 construct: The hGCH1 (42-250, N-terminal 6xHis Tag and TEV cleavage site); 6xHis (N); TEV cleavage site (N); made in house; host or cells: E. coli BL21(DE3)
T1 sequence (P30793 42-250 H126A): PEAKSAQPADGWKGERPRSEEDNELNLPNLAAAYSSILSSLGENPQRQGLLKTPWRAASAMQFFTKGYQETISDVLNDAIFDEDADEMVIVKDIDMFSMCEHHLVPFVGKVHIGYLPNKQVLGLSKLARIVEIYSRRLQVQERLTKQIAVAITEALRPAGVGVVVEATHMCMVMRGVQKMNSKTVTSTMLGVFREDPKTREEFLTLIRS
Procedure: (§1) The Tm of proteins and protein complexes was determined by DSF using the Thermofluor Bio-Rad CFX384 and the Bio-Rad CFX Manager software. Ten micromolar protein solution was equipped with 5× SYPRO Orange Protein Gel Stain (Invitrogen) reaching a total volume of 10 μL. Effector molecules and GFRP were added in different concentrations to test their influence on thermal stability; 384 well plates were heated up using a temperature ramp from 15 °C to 95 °C in 1 °C/min steps.

[2] = target: T2, GCH1 R235A (Homo sapiens, UniProt P30793, R235A); experiment: differential scanning fluorimetry (DSF), R235A; type: binding
T2 construct: The hGCH1 (42-250, N-terminal 6xHis Tag and TEV cleavage site); 6xHis (N); TEV cleavage site (N); made in house; host or cells: E. coli BL21(DE3)
T2 sequence (P30793 42-250 R235A): T1 sequence (P30793 42-250 H126A) with A85H, R194A
Procedure: as §1

[3] = target: T3, GCH1 E128A (Homo sapiens, UniProt P30793, E128A); experiment: differential scanning fluorimetry (DSF), E128A; type: binding; conditions: protein melting point in presence of GTP
T3 construct: The hGCH1 (42-250, N-terminal 6xHis Tag and TEV cleavage site); 6xHis (N); TEV cleavage site (N); made in house; host or cells: E. coli BL21(DE3)
T3 sequence (P30793 42-250 E128A): T1 sequence (P30793 42-250 H126A) with A85H, E87A
Procedure: as §1

[4] = target: T4, GCH1 R241A (Homo sapiens, UniProt P30793, R241A); experiment: differential scanning fluorimetry (DSF), R241A; type: binding
T4 construct: The hGCH1 (42-250, N-terminal 6xHis Tag and TEV cleavage site); 6xHis (N); TEV cleavage site (N); made in house; host or cells: E. coli BL21(DE3)
T4 sequence (P30793 42-250 R241A): T1 sequence (P30793 42-250 H126A) with A85H, R200A
Procedure: as §1

[5] = target: T5, GCH1 WT (Homo sapiens, UniProt P30793); experiment: differential scanning fluorimetry (DSF), WT GCH1; type: binding; conditions: protein melting point in presence of GTP
T5 construct: The hGCH1 (42-250, N-terminal 6xHis Tag and TEV cleavage site); 6xHis (N); TEV cleavage site (N); made in house; host or cells: E. coli BL21(DE3)
T5 sequence (P30793 42-250): T1 sequence (P30793 42-250 H126A) with A85H
Procedure: as §1

[6] = target: T6, GCH1 D127A (Homo sapiens, UniProt P30793, D127A); experiment: differential scanning fluorimetry (DSF), D127A; type: binding
T6 construct: The hGCH1 (42-250, N-terminal 6xHis Tag and TEV cleavage site); 6xHis (N); TEV cleavage site (N); made in house; host or cells: E. coli BL21(DE3)
T6 sequence (P30793 42-250 D127A): T1 sequence (P30793 42-250 H126A) with A85H, D86A
Procedure: as §1

[7] = target: T7, GCH1 F122A (Homo sapiens, UniProt P30793, F122A); experiment: differential scanning fluorimetry (DSF), F122A; type: binding
T7 construct: The hGCH1 (42-250, N-terminal 6xHis Tag and TEV cleavage site); 6xHis (N); TEV cleavage site (N); made in house; host or cells: E. coli BL21(DE3)
T7 sequence (P30793 42-250 F122A): T1 sequence (P30793 42-250 H126A) with F81A, A85H
Procedure: as §1

[8] = target: T8, R235A-GCH1 (Homo sapiens, UniProt P30793, R235A); experiment: enzyme kinetics, H2NTP formation at 330 nm, R235A-GCH1; type: biochemical; conditions: in the absence and presence of GFRP; 0.1 mM BH4
T8 construct: The hGCH1 (42-250, N-terminal 6xHis Tag and TEV cleavage site); 6xHis (N); TEV cleavage site (N); made in house; host or cells: E. coli BL21(DE3)
T8 sequence (P30793 42-250 R235A): T1 sequence (P30793 42-250 H126A) with A85H, R194A
Procedure: (§2) In order to test the role of the key residues H126, D127, E128, R235, and R241 involved in allosteric inhibitor binding and conformational change, various point mutants were prepared and tested for their ability to be stimulated and inhibited by effector molecules in the presence or absence of GFRP. […] Enzyme activity was evaluated using an activity assay measuring the formation of the product H2NTP at 330 nm with increasing GTP concentrations.
(§3) GTPCH-I specific enzyme activity was determined by spectrometric measuring of the concentration of its direct product H2NTP. Synergy H1 (BioTek Instruments) and Gen5 2.01 software were used to evaluate H2NTP concentration and the maximal turnover rate (Vmax) within each measuring interval. H2NTP concentration was measured at 330 nm over a measuring period of 2 h using a measuring interval of 2 min to 4 min at 37 °C. Samples were prepared using 2 μM GTPCH-I, varying concentrations of GTP (1 μM to 2,000 µM) and in the absence or presence of 15 mM phenylalanine, 0.1 mM BH4, or 3 μM GFRP. The assay buffer used was 50 mM Tris/HCl, pH 7.5, 100 mM KCl. The specific enzyme activity (A) was calculated using the path length of 0.15 cm and the extinction coefficient […] = 6,300 M^−1⋅cm^−1 H2NTP. […] All enzymatic data were, at least, measured in triplicate (n = 3).

[9] = target: T9, R241A-GCH1 (Homo sapiens, UniProt P30793, R241A); experiment: enzyme kinetics, H2NTP formation at 330 nm, R241A-GCH1; type: biochemical; conditions: in the absence and presence of GFRP; 0.1 mM BH4
T9 construct: The hGCH1 (42-250, N-terminal 6xHis Tag and TEV cleavage site); 6xHis (N); TEV cleavage site (N); made in house; host or cells: E. coli BL21(DE3)
T9 sequence (P30793 42-250 R241A): T1 sequence (P30793 42-250 H126A) with A85H, R200A
Procedure: as §2, §3

[10] = target: T10, GCH1 (Homo sapiens, UniProt P30793); experiment: functional assay with 1H-NMR detection of formate; type: biochemical
T10 construct: The hGCH1 (42-250, N-terminal 6xHis Tag and TEV cleavage site); 6xHis (N); TEV cleavage site (N); made in house; host or cells: E. coli BL21(DE3)
T10 sequence (P30793 42-250): T1 sequence (P30793 42-250 H126A) with A85H
Procedure: For the functional assay, each NMR sample was prepared with 10 μM GCH1 and 170 μM or 600 μM test compound. The PBS NMR buffer additionally contained 300 μM GTP (Cayman Chemical cat. no. 16060). After a reaction time of 45 min (25 °C), a certain amount of substrate molecules (GTP) has been converted by GCH1 into 7,8-Dihydroneopterin (H2NPT) and the by-product formate (deprotonated formic acid). For product detection, a WATERGATE 1H-NMR spectrum was recorded (128 scans). We used the integrated NMR signal of the formate α-proton at 8.33 ppm as a relative enzyme activity readout. The formate integral of a negative control sample (dimethyl sulfoxide) has been set to 100%. An inhibitory active test compound decreases the GTP turnover and leads to a reduced relative formate signal integral (% inhibition). DAHP was used as a positive control.
(§4) Supplemental Figure 6: Detection of product formation and STD NMR assay. A) Enzyme activity assay for GCH1 based on colorimetric detection of H2NTP or 1H-NMR detection of formate. […]
(§5) inhibitor (e.g. BH4). B) STD NMR is capable to detect GTP binding (green). Addition of another active site binder (8-oxo […]
STD NMR enhancement of substrate GTP in the presence of allosteric regulator BH4 (red). This screening assay allows for the identification of allosteric binders. […]

[11] = target: T5, GCH1 WT; experiment: enzyme kinetics, H2NTP formation at 330 nm, WT GCH1; type: biochemical; conditions: colorimetric detection of H2NTP
Procedure: as §2, §3

[12] = target: T10, GCH1; experiment: STD NMR assay with active site reporter ligand GTP; type: binding
From the text: as §4, §5
STD NMR enhancement of substrate GTP in the presence of allosteric regulator BH4 (red). This screening assay allows for the identification of allosteric binders. C) Correlation of activity in functional NMR assay and STD NMR enhancement of active site reporter ligand GTP.
(1 picture or pasted object on this page, not shown here)

[13] = substrate: Nc1nc2c(ncn2[C@@H]2O[C@H](COP(=O)(O)OP(=O)(O)OP(=O)(O)O)[C@@H](O)[C@H]2O)c(=O)[nH]1; experiment: enzyme kinetics, H2NTP formation at 330 nm, WT GCH1; type: biochemical, human; conditions: other: substrate GTP 1-2000 µM, without GFRP, not stimulated/inhibited; pH 7.5; 37.0 °C
Procedure: as §2, §3

[14] = substrate: Nc1nc2c(ncn2[C@@H]2O[C@H](COP(=O)(O)OP(=O)(O)OP(=O)(O)O)[C@@H](O)[C@H]2O)c(=O)[nH]1; experiment: enzyme kinetics, H2NTP formation at 330 nm, R241A-GCH1; type: biochemical, human; conditions: other: substrate GTP 1-2000 µM, without GFRP, not stimulated/inhibited; pH 7.5; 37.0 °C
Procedure: as §2, §3

[15] = substrate: Nc1nc2c(ncn2[C@@H]2O[C@H](COP(=O)(O)OP(=O)(O)OP(=O)(O)O)[C@@H](O)[C@H]2O)c(=O)[nH]1; experiment: enzyme kinetics, H2NTP formation at 330 nm, R235A-GCH1; type: biochemical, human; conditions: other: substrate GTP 1-2000 µM, without GFRP, not stimulated/inhibited; pH 7.5; 37.0 °C
Procedure: as §2, §3

[16] = substrate: Nc1nc2c(ncn2[C@@H]2O[C@H](COP(=O)(O)OP(=O)(O)OP(=O)(O)O)[C@@H](O)[C@H]2O)c(=O)[nH]1; experiment: enzyme kinetics, H2NTP formation at 330 nm, F122A GCH1; type: biochemical, human; conditions: other: substrate GTP 1-2000 µM, without GFRP, not stimulated/inhibited; pH 7.5; 37.0 °C
Procedure: as §2, §3

[17] = substrate: Nc1nc2c(ncn2[C@@H]2O[C@H](COP(=O)(O)OP(=O)(O)OP(=O)(O)O)[C@@H](O)[C@H]2O)c(=O)[nH]1; experiment: enzyme kinetics, H2NTP formation at 330 nm, D127A GCH1; type: biochemical, human; conditions: other: substrate GTP 1-2000 µM, without GFRP, not stimulated/inhibited; pH 7.5; 37.0 °C
Procedure: as §2, §3

[18] = protein melting point in presence of GTP
[19] = shift of melting point with GTP

Molecule: Nc1nc2c(ncn2[C@@H]2O[C@H](COP(=O)(O)OP(=O)(O)OP(=O)(O)O)[C@@H](O)[C@H]2O)c(=O)[nH]1 [GTP, Guanosine triphosphate]
- TM + GTP [1, 18]: 80.0 °C
- ΔTM WT+GTP [1, 19]: 6.0 °C
- TM + GTP [2, 18]: 81.2 °C
- ΔTM WT+GTP [2, 19]: 11.2 °C
- TM + GTP [3]: 78.5 °C
- TM + GTP [4, 18]: 86.2 °C
- ΔTM WT+GTP [4, 19]: 17.7 °C
- TM + GTP [5]: 83.2 °C
- TM + GTP [6, 18]: 78.0 °C
- ΔTM WT+GTP [6, 19]: 5.0 °C
- TM + GTP [7, 18]: 75.2 °C
- ΔTM WT+GTP [7, 19]: 4.2 °C

Molecule: C[C@H](O)[C@H](O)[C@H]1CNc2nc(N)[nH]c(=O)c2N1 [BH4, tetrahydrobiopterin]
- inhibition of enzyme activity by BH4 [8]: cannot be inhibited
- inhibition of enzyme activity by BH4 [9]: cannot be inhibited
- formate production in presence of inhibitor [10]: No H2NTP or formate is produced
- H2NTP production in presence of inhibitor [11]: No H2NTP or formate is produced
- effect on STD NMR signal of substrate GTP (allosteric regulator) ([12]; in the presence of allosteric regulator): enhancement

Molecule: Nc1nc2c([nH]c(=O)n2[C@@H]2O[C@H](COP(=O)(O)OP(=O)(O)OP(=O)(O)O)[C@@H](O)[C@H]2O)c(=O)[nH]1 [8-oxo GTP, 8-oxo-GTP]
- effect on STD NMR signal of GTP (active site competition) ([12]; addition of another active site binder): loss of the signal

B1: GCH1 (WT) (Homo sapiens) (protein)
chain: T1 sequence (P30793 42-250 H126A) with A85H
notes: The hGCH1 (42-250, N-terminal 6xHis Tag and TEV cleavage site); 6xHis (N); TEV cleavage site (N); made in house; host or cells: E. coli BL21(DE3)
- Km [13]: 106 µM

B2: R241A-GCH1 (Homo sapiens; R241A) (protein)
chain: T1 sequence (P30793 42-250 H126A) with A85H, R200A
notes: as for B1
- Km [14]: 306 µM

B3: R235A-GCH1 (Homo sapiens; R235A) (protein)
chain: T1 sequence (P30793 42-250 H126A) with A85H, R194A
notes: as for B1
- Km [15]: 328 µM

B4: F122A GCH1 (Homo sapiens; F122A) (protein)
chain: T1 sequence (P30793 42-250 H126A) with F81A, A85H
notes: as for B1
- Km [16]: 434 µM

B5: D127A GCH1 (Homo sapiens; D127A) (protein)
chain: T1 sequence (P30793 42-250 H126A) with A85H, D86A
notes: as for B1
- Km [17]: 483 µM
